# What was measured:
# [1] = Growth of chickens and efficiency of feed utilization; assay type: in vivo, Peterson X Arbor Acres chicks; settings: 25 ppm in the diet
# Experimental: In this test, one day old Peterson X Arbor Acres chicks are sorted into equal weight groups of 5 males and 5 females per cage. Cages are randomized to treatment groups with six replicates per treatment. The test compound is evaluated 25 ppm in the diet against chicks receiving a non-medicated diet and a diet containing 200 ppm of penicillin as a positive control.
# The cages are weighed at day 1 and at day 14 and feed consumption is measured on weigh days. Feed and water are offered ad libitum and lighting and supplemental heat are provided continuously.
# The poultry diet employed in the test is as follows:
# The vitamin-amino acid premix in the above feed composition is prepared from the following formulation. The expressions of quantity relate to units per kilogram of the finished feed composition.
# [2] = system: non-enterococcal streptococci; experiment: MIC by agar dilution, summary for non-enterococcal streptococci; assay type: cell-based; settings: 18 h; text summary: relatively good activity against non-enterococcal streptococci
# Experimental: (§1) The in vitro antibacterial activity of LL-E19020 Gamma is determined against a spectrum of gram positive and gram negative bacteria by a standard agar dilution method. Mueller-Hinton agar containing 5% sheep blood and two-fold decreasing concentrations of LL-E19020 Gamma is poured into petri dishes. The agar surfaces are inoculated with 1 to 5X10^4 colony forming units of bacteria by means of the Steers replicating device. The lowest concentration of antibiotic that inhibits growth of a bacterial strain after 18 hours incubation is recorded as the minimal inhibitory concentration for that strain.
# • 1. Serial two-flow dilutions of drug are prepared in Mueller-Hinton broth in a range of 2560 µg/ml-0.15 µg/ml plus a solvent control. • 2. Two milliliters of drug dilution (10X) are added to sterile screw cap bottles to which 18 ml of Mueller-Hinton agar containing 5.6% defibrinated sheep blood is added. Final drug concentration ranges 256 µg/ml-0.015 µg/ml in agar containing 5% sheep blood. • 3. A few isolated colonies of each test organism are inoculated into 5 ml trypticase soy broth or brain heart infusion broth. The cultures are shaken at 35 °C. for 5 hours. • 4. Each culture is diluted 1:50 (10^-1.7) in Mueller-Hinton broth and applied to agar plates using a Steers replicator. Control plates should be seeded last to ensure that viable organisms are present throughout the procedure. […]
# [3] = system: Staphylococcus aureus Smith; experiment: In vivo antibacterial activity, acute lethal infection in mice; settings: for Survival Ratio 7 Days After Infection With S. aureus Smith: mice, 30 minutes after infection
# Experimental: (§2) The in vivo antibacterial activity of antibiotic LL-E19020 Gamma is established by infecting female CD-1 mice from Charles River Laboratories, weighing 20±2 g each, intraperitoneally with either 2.0 X 10^2 CFU/0.5 ml Streptococcus pyogenes C203 suspended in broth or 2.8 X 10^6 CFU/0.5 ml Straphylococcus aureus Smith suspended in 5% hog gastric mucin. The mice were treated subcutaneously, 30 minutes after infection with the indicated dose of the test compound in 0.5 ml of 0.2% aqueous agar. Toxicity studies were performed administering the same treatment to uninfected mice.
# [4] = system: Streptococcus pyogenes C203; experiment: as above; settings: for Survival Ratio 7 Days After Infection With S. pyogenes C203: mice, 30 minutes after infection
# Experimental: as §2
# [5] = system: Staphylococcus aureus IVES 396; experiment: MIC by agar dilution; assay type: cell-based; settings: IVES396, Mueller-Hinton agar, 5% sheep blood, 18 hours, read-out: MINIMAL INHIBITORY CONCENTRATION
# Experimental: as §1
# (§3) • 1. Serial two-flow dilutions of drug are prepared in Mueller-Hinton broth in a range of 2560 µg/ml-0.15 µg/ml plus a solvent control. • 2. Two milliliters of drug dilution (10X) are added to sterile screw cap bottles to which 18 ml of Mueller-Hinton agar containing 5.6% defibrinated sheep blood is added. Final drug concentration ranges 256 µg/ml-0.015 µg/ml in agar containing 5% sheep blood. • 3. A few isolated colonies of each test organism are inoculated into 5 ml trypticase soy broth or brain heart infusion broth. The cultures are shaken at 35 °C. for 5 hours. • 4. Each culture is diluted 1:50 (10^-1.7) in Mueller-Hinton broth and applied to agar plates using a Steers replicator. Control plates should be seeded last to ensure that viable organisms are present throughout the procedure. Inoculated agar plates are allowed to stand undisturbed until the inoculum spots are completely absorbed. • 5. The plates are inverted and incubated at 35 °C. for 18 hours with CO2. • 6. The minimum inhibitory concentration (MIC) is taken as the lowest concentration of antimicrobial agent at which complete inhibition of antimicrobial agent at which complete inhibition occurs. A very fine, barely visible haze or a single colony is disregarded.
# [6] = system: Staphylococcus aureus SMITH (MP); experiment: MIC by agar dilution; assay type: cell-based; settings: Mueller-Hinton agar, 5% sheep blood, 18 hours, read-out: MINIMAL INHIBITORY CONCENTRATION
# Experimental: as §1, §3
# [7] = system: Staphylococcus aureus VGH 84-47; experiment: MIC by agar dilution; assay type: cell-based; settings: VGH8447, 18 h, read-out: MINIMAL INHIBITORY CONCENTRATION
# Experimental: as §1, §3
# [8] = system: Streptococcus pneumoniae CHBM 88-75; experiment: MIC by agar dilution; assay type: cell-based; settings: CHBM8875, Mueller-Hinton agar, 5% sheep blood, 18 hours, read-out: MINIMAL INHIBITORY CONCENTRATION
# Experimental: as §1, §3
# [9] = system: Escherichia coli ATCC 35218; experiment: MIC by agar dilution; assay type: cell-based; settings: ATCC35218, 18 h, read-out: MINIMAL INHIBITORY CONCENTRATION
# Experimental: as §1, §3
# [10] = system: Streptococcus pneumoniae SV-1 (MP); experiment: MIC by agar dilution; assay type: cell-based; settings: Mueller-Hinton agar, 5% sheep blood, 18 hours, read-out: MINIMAL INHIBITORY CONCENTRATION
# Experimental: as §1, §3
# [11] = system: Streptococcus pyogenes AMCH 88-84; experiment: MIC by agar dilution; assay type: cell-based; settings: AMCH8884, Mueller-Hinton agar, 5% sheep blood, 18 hours, read-out: MINIMAL INHIBITORY CONCENTRATION
# Experimental: as §1, §3
# [12] = system: Staphylococcus aureus NEMC 87-69; experiment: MIC by agar dilution; assay type: cell-based; settings: NEMC8769, Mueller-Hinton agar, 5% sheep blood, 18 hours, read-out: MINIMAL INHIBITORY CONCENTRATION
# Experimental: as §1, §3
# [13] = Single Subcutaneous Dose 0.5 MG/KG
# [14] = Single Subcutaneous Dose 1 MG/KG
# [15] = Single Subcutaneous Dose 2 MG/KG
# [16] = Single Subcutaneous Dose 4 MG/KG
# [17] = Single Subcutaneous Dose 8 MG/KG
# [18] = Single Subcutaneous Dose 16 MG/KG
smiles,measurement,setting,value
C/C=C\C=C\C1OC(O)(C(COC2CC(OC)C(OC3CC(OC)C(OC4CC(OC)C(O)C(C)O4)C(C)O3)C(C)O2)C(=O)NC/C=C/C=C(\C)C(OC)C(C)C2CC(O)C(/C=C/C=C/C=C/C(=O)O)O2)C(OC(=O)Cc2ccc(O)cc2)C(O)C1(C)C (stereo not shown) [LL-E19020 Gamma],Weight Gain,"[1]; chicks, day 1 to day 14",342 g
same,"Weight Gain, % improvement over control","[1]; chicks, day 1 to day 14",6.5%
same,feed conversion,"[1]; chicks, day 1 to day 14",1.297
same,"feed conversion, % improvement over control","[1]; chicks, day 1 to day 14",1.9%
same,"efficiency of feed utilization, result in words",[1]; over unmedicated controls,increased the efficiency of feed utilization
same,"weight gain of chicks, result in words",[1]; over unmedicated controls,improved weight gain of chicks
same,MIC,[2],0.12 to 16 µg/mL
same,Survival Ratio 7 Days After Infection With S. aureus Smith,[3]; [13],0/5
same,Survival Ratio 7 Days After Infection With S. aureus Smith,[3]; [14],0/5
same,Survival Ratio 7 Days After Infection With S. aureus Smith,[3]; [15],0/5
same,Survival Ratio 7 Days After Infection With S. aureus Smith,[3]; [16],0/5
same,Survival Ratio 7 Days After Infection With S. aureus Smith,[3]; [17],0/5
same,Survival Ratio 7 Days After Infection With S. aureus Smith,[3]; [18],0/5
same,Survival Ratio 7 Days After Infection With S. aureus Smith,[3]; Single Subcutaneous Dose 32 MG/KG,0/5
same,Survival Ratio 7 Days After Infection With S. aureus Smith,[3]; Single Subcutaneous Dose 64 MG/KG,0/5
same,ED50,"[3]; sc, acute lethal infection in mice, Staphylococcus aureus Smith, single subcutaneous dose, read-out: approximate ED50",> 64 mg/kg
same,Survival Ratio 7 Days After Infection With S. pyogenes C203,[4]; [13],0/5
same,Survival Ratio 7 Days After Infection With S. pyogenes C203,[4]; [14],0/5
same,Survival Ratio 7 Days After Infection With S. pyogenes C203,[4]; [15],0/5
same,Survival Ratio 7 Days After Infection With S. pyogenes C203,[4]; [16],1/5
same,Survival Ratio 7 Days After Infection With S. pyogenes C203,[4]; [17],3/5
same,Survival Ratio 7 Days After Infection With S. pyogenes C203,[4]; [18],4/5
same,ED50,"[4]; sc, acute lethal infection in mice, Streptococcus pyogenes C203, single subcutaneous dose, read-out: approximate ED50",4 to 8 mg/kg
same,MIC,[5],64 µg/mL
same,MIC,[6],128 µg/mL
same,MIC,[7],64 µg/mL
same,MIC,[8],16 µg/mL
same,MIC,[9],> 128 µg/mL
same,MIC,[10],0.12 µg/mL
same,MIC,[11],0.12 µg/mL
same,MIC,[12],32 µg/mL

# Reference: patent EP0531640B1, “Antibiotic LL-E19020 Gamma” (F. HOFFMANN-LA ROCHE AG, priority 1991, dated 1993)
